The record followed here is EP0562731A1, “Substituted pyridinesulfonamide compounds or their salts, process for preparing the same, and herbicides containing the same” (ISHIHARA SANGYO KAISHA, Ltd., priority 1992, dated 1993).

Test in all cases: Test Example 1: foliar application pot test, visual growth control rating
Holding throughout (type): in vivo
Holding throughout (parameters): key: 1: the same as in an untreated plot; 10: perfect growth control
Settings in all cases: wettable powder, observed 20 to 31 days after application

The subject of assay [1] is slender amaranth (Amaranthus viridis). The text has this:
(§1) 1/1,500 are [are (a) = 100 m²] pots were filled with upland farming soil, which in the pots was then sown with a variety of plants. The plants grown will be enumerated below.
(§2) When each plant reached a given growth stage (a 1.2- to 3.0-leaf stage for rice, primary leaf to a 0.7-leaf stage for soybean, 2.1- to 3.6-leaf stage for corn, cotyledon to 0.7-leaf stage for cotton, 2.0- to 3.0-leaf stage for wheat, 0.3- to 3.4-leaf stage for cocklebur, 0.3- to 1.6-leaf stage for morning glory, 0.1- to 1.3-leaf stage for prickly sida, 0.1- to 1.3-leaf stage for slender amaranth, 1.5- to 3.2-leaf stage for barnyard glass, and 1.2- to 3.0-leaf stage for large crabgrass), a predetermined amount of the herbicide of the present invention in the form of a wettable powder, weighed out, diluted with 5 ℓ/a of water and admixed with 0.2 or 0.1 vol%, based on the resulting composition, of an agricultural spreader, was foliarly applied to the plant with a small spray gun. The progress of growth of the plant was visually observed 20 to 31 days after the foliar application to evaluate the degree of growth control according to 10 ratings (1: the same as in an untreated plot - 10: perfect growth control).

Assay [2] concerns corn (Zea mays).
Excerpt: as §1, §2

Assay [3] has as its system rice (Oryza sativa).
Excerpt: as §1, §2

The test system of assay [4] is barnyard grass (Echinochloa crus-galli).
Excerpt: as §1, §2

Assay [5] has as its system cocklebur (Xanthium strumarium).
Excerpt: as §1, §2

Assay [6] relates to prickly sida (Sida spinosa).
Excerpt: as §1, §2

For assay [7], the system named is morning glory (Ipomoea purpurea).
Excerpt: as §1, §2

Assay [8] concerns large crabgrass (Digitaria adscendens).
Excerpt: as §1, §2

The subject of assay [9] is wheat (Triticum).
Excerpt: as §1, §2

Turning to `CCN(c1cccc(S(=O)(=O)NC(=O)Nc2nc(OC)nc(OC)n2)n1)S(=O)(=O)C(C)Cl` (racemic) [Compound No. 55, 6-[[N-(1-chloroethylsulfonyl)-N-ethyl]amino]-N-[[(4,6-dimethoxytriazin-2-yl)amino]carbonyl]-2-pyridinesulfonamide], the “degree of growth control, AM” value in assay [1] (0.31 g/a active ingredient) and in assay [1] (1.25 g/a active ingredient) was 6 in each case. For the same compound, the “degree of growth control, ZE” value in [2] (0.31 g/a active ingredient) and in [2] (1.25 g/a active ingredient) was 10 throughout. Besides, the “degree of growth control, OR” value in [3] (0.31 g/a active ingredient) and in assay [3] (1.25 g/a active ingredient) was 9 each time. The “degree of growth control, EC” value in assay [4] (0.31 g/a active ingredient) and in assay [4] (1.25 g/a active ingredient) was 10 throughout. For the same compound, the “degree of growth control, XA” value in assay [5] (0.31 g/a active ingredient) and in assay [5] (1.25 g/a active ingredient) was 10 each time. Also, the “degree of growth control, SI” value in assay [6] (0.31 g/a active ingredient) and in [6] (1.25 g/a active ingredient) was 6 in each case.
As for `CCN(c1cccc(S(=O)(=O)NC(=O)Nc2nc(C)nc(OC)n2)n1)S(=O)(=O)C(C)Br` (racemic) [compound 78], the “degree of growth control, ZE” value in assay [2] (0.31 g/a active ingredient) and in assay [2] (1.25 g/a active ingredient) was 10 in each case. For the same compound, the “degree of growth control, EC” value in assay [4] (0.31 g/a active ingredient) and in [4] (1.25 g/a active ingredient) was 10 each time. Further, the “degree of growth control, IP” value in assay [7] (0.31 g/a active ingredient) and in [7] (1.25 g/a active ingredient) was 10 each time. For the same compound, the “degree of growth control, XA” value in assay [5] (0.31 g/a active ingredient) and in [5] (1.25 g/a active ingredient) was 10 throughout.
Take `CCC(C)N(c1cccc(S(=O)(=O)NC(=O)Nc2nc(C)nc(OC)n2)n1)S(=O)(=O)CC(C)C` (racemic) [compound 80]: the “degree of growth control, DI” value in [8] (0.31 g/a active ingredient) and in [8] (1.25 g/a active ingredient) was 2 throughout. Besides, the “degree of growth control, IP” value in assay [7] (0.31 g/a active ingredient) and in assay [7] (1.25 g/a active ingredient) was 5 each time. Besides, the “degree of growth control, XA” value in assay [5] (0.31 g/a active ingredient) and in assay [5] (1.25 g/a active ingredient) was 6 each time. Also, the “degree of growth control, SI” value in assay [6] (0.31 g/a active ingredient) and in [6] (1.25 g/a active ingredient) was 3 in each case.
In the case of `CCCCS(=O)(=O)N(c1cccc(S(=O)(=O)NC(=O)Nc2nc(C)nc(OC)n2)n1)C(C)CC` (racemic) [compound 84], the “degree of growth control, EC” value in assay [4] (0.31 g/a active ingredient) and in [4] (1.25 g/a active ingredient) was 5 throughout. For the same compound, the “degree of growth control, IP” value in assay [7] (0.31 g/a active ingredient) and in assay [7] (1.25 g/a active ingredient) was 6 each time.
Take `COc1nc(C)nc(NC(=O)NS(=O)(=O)c2cccc(N(C)S(=O)(=O)C(C)Cl)n2)n1` (racemic) [compound 85]: the “degree of growth control, ZE” value in assay [2] (0.31 g/a active ingredient) and in [2] (1.25 g/a active ingredient) was 10 each time. In addition, the “degree of growth control, EC” value in [4] (0.31 g/a active ingredient) and in assay [4] (1.25 g/a active ingredient) was 10 in each case.
Take `CCCN(c1cccc(S(=O)(=O)NC(=O)Nc2nc(C)nc(OC)n2)n1)S(=O)(=O)C(C)Cl` (racemic) [compound 86]: the “degree of growth control, ZE” value in assay [2] (0.31 g/a active ingredient) and in assay [2] (1.25 g/a active ingredient) was 10 in each case. The “degree of growth control, EC” value in assay [4] (0.31 g/a active ingredient) and in assay [4] (1.25 g/a active ingredient) was 10 in each case. Further, the “degree of growth control, IP” value in assay [7] (0.31 g/a active ingredient) and in assay [7] (1.25 g/a active ingredient) was 10 in each case.
For `COc1nc(C)nc(NC(=O)NS(=O)(=O)c2cccc(N(C(C)C)S(=O)(=O)C(C)Cl)n2)n1` (racemic) [compound 93], the “degree of growth control, AM” value in assay [1] (0.31 g/a active ingredient) and in [1] (1.25 g/a active ingredient) was 9 each time. The “degree of growth control, OR” value in [3] (0.31 g/a active ingredient) and in assay [3] (1.25 g/a active ingredient) was 9 each time. The “degree of growth control, IP” value in assay [7] (0.31 g/a active ingredient) and in assay [7] (1.25 g/a active ingredient) was 9 in each case. Also, the “degree of growth control, XA” value in assay [5] (0.31 g/a active ingredient) and in assay [5] (1.25 g/a active ingredient) was 10 each time.
With `CCN(c1cccc(S(=O)(=O)NC(=O)Nc2nc(C)nc(OC)n2)n1)S(=O)(=O)C(C)C` [Compound No. 1, 6-[(N-ethyl-N-isopropylsulfonyl)amino]-N-[[(4-methoxy-6-methyltriazin-2-yl)amino]carbonyl]-2-pyridinesulfonamide], the “degree of growth control, AM” value in assay [1] (0.31 g/a active ingredient) and in assay [1] (1.25 g/a active ingredient) was 10 throughout. Further, the “degree of growth control, DI” value in assay [8] (0.31 g/a active ingredient) and in assay [8] (1.25 g/a active ingredient) was 8 throughout. Moreover, the “degree of growth control, TR” value in assay [9] (0.31 g/a active ingredient) and in assay [9] (1.25 g/a active ingredient) was 8 throughout.
For the compound `CCN(c1cccc(S(=O)(=O)NC(=O)Nc2nc(OC)nc(OC)n2)n1)S(=O)(=O)C(C)C` [Compound No. 2, 6-[(N-ethyl-N-isopropylsulfonyl)amino]-N-[[(4,6-dimethoxytriazin-2-yl)amino]carbonyl]-2-pyridinesulfonamide], the “degree of growth control, AM” value in assay [1] (0.31 g/a active ingredient) and in [1] (1.25 g/a active ingredient) was 10 throughout. The “degree of growth control, XA” value in assay [5] (0.31 g/a active ingredient) and in [5] (1.25 g/a active ingredient) was 10 each time.
As to `CCCN(c1cccc(S(=O)(=O)NC(=O)Nc2nc(OC)nc(OC)n2)n1)S(=O)(=O)C(C)C` [Compound No. 5], the “degree of growth control, EC” value in assay [4] (0.31 g/a active ingredient) and in [4] (1.25 g/a active ingredient) was 10 in each case. Further, the “degree of growth control, XA” value in assay [5] (0.31 g/a active ingredient) and in [5] (1.25 g/a active ingredient) was 10 each time.
In the case of `CCN(c1cccc(S(=O)(=O)NC(=O)Nc2nc(OC)nc(OC)n2)n1)S(=O)(=O)C(Cl)Cl` [Compound No. 57, 6-[(N-dichloromethylsulfonyl-N-ethyl)amino]-N-[[(4,6-dimethoxytriazine-2-yl)amino]carbonyl]-2-pyridinesulfonamide], the “degree of growth control, DI” value in assay [8] (0.31 g/a active ingredient) and in assay [8] (1.25 g/a active ingredient) was 9 in each case. Also, the “degree of growth control, TR” value in assay [9] (0.31 g/a active ingredient) and in [9] (1.25 g/a active ingredient) was 6 in each case. For the same compound, the “degree of growth control, IP” value in [7] (0.31 g/a active ingredient) and in assay [7] (1.25 g/a active ingredient) was 10 throughout. Further, the “degree of growth control, XA” value in [5] (0.31 g/a active ingredient) and in assay [5] (1.25 g/a active ingredient) was 10 throughout.
For `COc1nc(C)nc(NC(=O)NS(=O)(=O)c2cccc(N(OC)S(=O)(=O)C(C)C)n2)n1` [compound 41], the “degree of growth control, ZE” value in [2] (0.31 g/a active ingredient) and in assay [2] (1.25 g/a active ingredient) was 10 each time. Also, the “degree of growth control, EC” value in assay [4] (0.31 g/a active ingredient) and in assay [4] (1.25 g/a active ingredient) was 10 each time.
On to `CCN(c1cccc(S(=O)(=O)NC(=O)Nc2nc(C)nc(OC)n2)n1)S(=O)(=O)C(Cl)Cl` [compound 56], for which the “degree of growth control, ZE” value in assay [2] (0.31 g/a active ingredient) and in [2] (1.25 g/a active ingredient) was 10 throughout. Besides, the “degree of growth control, OR” value in [3] (0.31 g/a active ingredient) and in [3] (1.25 g/a active ingredient) was 9 each time. Moreover, the “degree of growth control, EC” value in [4] (0.31 g/a active ingredient) and in assay [4] (1.25 g/a active ingredient) was 10 throughout. Besides, the “degree of growth control, DI” value in assay [8] (0.31 g/a active ingredient) and in assay [8] (1.25 g/a active ingredient) was 10 throughout. The “degree of growth control, TR” value in [9] (0.31 g/a active ingredient) and in [9] (1.25 g/a active ingredient) was 10 each time. Also, the “degree of growth control, XA” value in assay [5] (0.31 g/a active ingredient) and in [5] (1.25 g/a active ingredient) was 10 in each case.
`CCN(c1cccc(S(=O)(=O)NC(=O)Nc2nc(C)nc(OC)n2)n1)S(=O)(=O)C(C)(C)Cl` [compound 87]: the “degree of growth control, XA” value in assay [5] (0.31 g/a active ingredient) and in [5] (1.25 g/a active ingredient) was 10 throughout.
Turning to `COc1nc(C)nc(NC(=O)NS(=O)(=O)c2cccc(N(C)S(=O)(=O)C(Br)(Br)Br)n2)n1` [compound 89], the “degree of growth control, DI” value in [8] (0.31 g/a active ingredient) and in assay [8] (1.25 g/a active ingredient) was 7 each time. Further, the “degree of growth control, XA” value in assay [5] (0.31 g/a active ingredient) and in [5] (1.25 g/a active ingredient) was 10 throughout.
`CCN(c1cccc(S(=O)(=O)NC(=O)Nc2nc(C)nc(OC)n2)n1)S(=O)(=O)C(Br)(Br)Br` [compound 90]: the “degree of growth control, EC” value in assay [4] (0.31 g/a active ingredient) and in assay [4] (1.25 g/a active ingredient) was 10 each time. The “degree of growth control, DI” value in [8] (0.31 g/a active ingredient) and in [8] (1.25 g/a active ingredient) was 6 each time. The “degree of growth control, XA” value in [5] (0.31 g/a active ingredient) and in assay [5] (1.25 g/a active ingredient) was 10 throughout. Also, the “degree of growth control, SI” value in [6] (0.31 g/a active ingredient) and in assay [6] (1.25 g/a active ingredient) was 6 each time.
For `CCN(c1cccc(S(=O)(=O)NC(=O)Nc2nc(C)nc(OC)n2)n1)S(=O)(=O)C(Cl)(Cl)Cl` [compound 91], the “degree of growth control, OR” value in assay [3] (0.31 g/a active ingredient) and in assay [3] (1.25 g/a active ingredient) was 9 each time. For the same compound, the “degree of growth control, TR” value in assay [9] (0.31 g/a active ingredient) and in assay [9] (1.25 g/a active ingredient) was 9 in each case. The “degree of growth control, IP” value in assay [7] (0.31 g/a active ingredient) and in assay [7] (1.25 g/a active ingredient) was 9 each time. For the same compound, the “degree of growth control, XA” value in [5] (0.31 g/a active ingredient) and in assay [5] (1.25 g/a active ingredient) was 10 throughout.
